The values that follow come from paper PMC7587962, “Evaluation of Cytotoxicity and α-Glucosidase Inhibitory Activity of Amide and Polyamino-Derivatives of Lupane Triterpenoids” (Molecules, 2020).

Test [1] deals with 60 human tumor cell lines. In words: cells.
Test [2] deals with ACHN. In words: NCI-60 SRB screen: renal cancer ACHN. It is filed as cell-based, human. Conditions: single dose 10 µM.
Test [3] concerns MOLT-4. In words: NCI-60 SRB screen: leukemia MOLT-4. It is filed as cell-based. Conditions: Homo sapiens, 48 h; MOLT-4; single dose 10 µM; read-out: Percentage Cell Growth.
The test system of test [4] is MCF7. Put plainly: NCI-60 SRB screen: breast cancer MCF7. It is filed as cell-based. Conditions: Homo sapiens, 48 h; MCF7; single dose 10 µM; read-out: Percentage Cell Growth.
The subject of test [5] is SW-620. Put plainly: NCI-60 SRB screen: colon cancer SW-620. It is filed as cell-based. Conditions: Homo sapiens, 48 h; SW-620; single dose 10 µM; read-out: Percentage Cell Growth.
The subject of test [6] is HOP-92. Put plainly: NCI-60 SRB screen: non-small cell lung cancer HOP-92. It is filed as cell-based, human. Conditions: HOP-92; single dose 10 µM.
For test [7], the system named is CCRF-CEM. In words: NCI-60 SRB screen: leukemia CCRF-CEM. Conditions: Homo sapiens, 48 h, single dose 10 µM, read-out: Percentage Cell Growth. It is filed as cell-based.
For test [8], the system named is SK-MEL-5. In words: NCI-60 SRB screen: melanoma SK-MEL-5. It is filed as cell-based, human. Conditions: SK-MEL-5; single dose 10 µM.
In test [9] the test system is RPMI-8226. Put plainly: NCI-60 SRB screen: leukemia RPMI-8226. The class given is cell-based. Conditions: Homo sapiens, 48 h; RPMI-8226; single dose 10 µM; read-out: Percentage Cell Growth.
Test [10] has as its system UO-31. Put plainly: NCI-60 SRB screen: renal cancer UO-31. Conditions: UO-31; single dose 10 µM. The class given is cell-based, human.
Test [11] has as its system CAKI-1. Put plainly: NCI-60 SRB screen: renal cancer CAKI-1. It is filed as cell-based, human. Conditions: CAKI-1; single dose 10 µM.
In test [12] the test system is PC-3. In words: NCI-60 SRB screen: prostate cancer PC-3. It is filed as cell-based, human. Conditions: PC-3; single dose 10 µM.
Test [13] relates to HCT-116. Put plainly: NCI-60 SRB screen: colon cancer HCT-116. It is filed as cell-based. Conditions: Homo sapiens, 48 h; HCT-116; single dose 10 µM; read-out: Percentage Cell Growth.
In test [14] the test system is HL-60(TB). Put plainly: NCI-60 SRB screen: leukemia HL-60(TB). It is filed as cell-based. Conditions: Homo sapiens, 48 h; HL-60(TB); single dose 10 µM; read-out: Percentage Cell Growth.
The subject of test [15] is HT29. Put plainly: NCI-60 SRB screen: colon cancer HT29. The class given is cell-based. Conditions: Homo sapiens, HT-29, 48 h; HT29; single dose 10 µM; read-out: Percentage Cell Growth.
Test [16] relates to T-47D. Put plainly: NCI-60 SRB screen: breast cancer T-47D. It is filed as cell-based, human. Conditions: T-47D; single dose 10 µM.
The subject of test [17] is SF-295. In words: NCI-60 SRB screen: CNS cancer SF-295. It is filed as cell-based, human. Conditions: SF-295; single dose 10 µM.
Test [18] deals with MDA-MB-231/ATCC. In words: NCI-60 SRB screen: breast cancer MDA-MB-231/ATCC. The class given is cell-based. Conditions: Homo sapiens, 48 h; MDA-MB-231/ATCC; single dose 10 µM; read-out: Percentage Cell Growth.
The subject of test [19] is U251. In words: NCI-60 SRB screen: CNS cancer U251. The class given is cell-based. Conditions: Homo sapiens, U-251, 48 h; U251; single dose 10 µM; read-out: Percentage Cell Growth.
The test system of test [20] is NCI-H460. Put plainly: NCI-60 SRB screen: non-small cell lung cancer NCI-H460. The class given is cell-based. Conditions: Homo sapiens, 48 h; NCI-H460; single dose 10 µM; read-out: Percentage Cell Growth.
Test [21] has as its system SNB-75. Put plainly: NCI-60 SRB screen: CNS cancer SNB-75. It is filed as cell-based, human. Conditions: SNB-75; single dose 10 µM.
Test [22] relates to Rat Liver ER Neutral α-Glucosidase. Put plainly: Endoplasmic reticulum α-glucosidase activity assay. It is filed as biochemical. From the text:
Betulinic acid inhibits yeast α-glucosidase activity and interferes with N-linked glycan modifications to cell-surface intercellular adhesion molecule-1 (ICAM-1) in human lung carcinoma A549 cells in a similar manner to castanospermine, an inhibitor of endoplasmic reticulum α-glucosidases I and II [66]. […] Taken together, these considerations prompted us to evaluate a series of lupanes with amide function or polyamine chain 11, 12, 16, 18, and 22–26 for α-glucosidase inhibition. Initially, they were screened against α-glucosidase of S. cerevisiae as an accessible and high-throughput model. Confirmatory experiments were performed on isolated rough endoplasmic reticulum vesicles from rat liver, which contain neutral α-glucosidases I and II in a membrane-bound form.
Endoplasmic reticulum was isolated from hepatocytes of decapitated male Sprague-Dawley rats, which were starved overnight and sacrificed the next morning. All experiments were approved by Volgograd regional ethic committee. The whole procedure was performed at 4 °C. In brief, a fresh tissue sample from an animal was washed twice with 10 mL of PBS to remove residual blood. The tissue was placed on a paper towel in order to absorb excess liquid and blood clots, if present. It was cut further into small pieces (1.5–2 cm) and washed once more. […] Homogenate was centrifuged at 1000× g for 10 min at 4 °C. After removal of the floating lipid layer by aspiration, supernatant was separated and centrifuged at 12,000× g for 15 min. at 4 °C. The supernatant fraction, which is the post mitochondrial fraction (PMF), was used for isolation of rough endoplasmic reticulum (RER) enriched microsomes by precipitation with 8 mM CaCl2 added dropwise. The final concentration of CaCl2 was 7 mM. Resulting sample was centrifuged at 8000 g for 10 min. at 4 °C. The supernatant was discarded, and the pellet was suspended in isotonic extraction buffer (0.3 mL of buffer for each g of original tissue). The suspension was homogenized completely to afford RER enriched microsomes. In a 96-well flat transparent plate 25 µL of the isolated RER microsomes were incubated with 50 µL of test compounds in 67 mM PBS (pH 6.8) at 37 °C for 10 min. Then, p-nitrophenyl-α-D-glucopyranoside (Sigma #N1377, St. Louis, MO, USA) was added to 1 mM final concentration and increase in absorbance was recorded for 42 min at 405 nm wavelength with Infinite M200 PRO microplate reader (Tecan, Austria). Concentration of RER microsomes was adjusted to achieve an increase in optical density of ~0.2 in control samples after 30 min. of incubation. Test compounds were prepared as described above for the yeast α-glucosidase assay.

Test [23] deals with IGROV1. Put plainly: NCI-60 SRB screen: ovarian cancer IGROV1. The class given is cell-based, human. Conditions: IGROV1; single dose 10 µM.
Test [24] relates to KM12. Put plainly: NCI-60 SRB screen: colon cancer KM12. The class given is cell-based, human. Conditions: KM12; single dose 10 µM.
Test [25] deals with COLO 205. Put plainly: NCI-60 SRB screen: colon cancer COLO 205. It is filed as cell-based, human. Conditions: COLO 205; single dose 10 µM.
Test [26] relates to SR. Put plainly: NCI-60 SRB screen: leukemia SR. It is filed as cell-based. Conditions: Homo sapiens, 48 h, single dose 10 µM, read-out: Percentage Cell Growth.
The subject of test [27] is OVCAR-8. Put plainly: NCI-60 SRB screen: ovarian cancer OVCAR-8. It is filed as cell-based, human. Conditions: OVCAR-8; single dose 10 µM.
Test [28] relates to LOX IMVI. In words: NCI-60 SRB screen: melanoma LOX IMVI. It is filed as cell-based, human. Conditions: single dose 10 µM.
Test [29] deals with K-562. Put plainly: NCI-60 SRB screen: leukemia K-562. The class given is cell-based, human. Conditions: K-562; single dose 10 µM.

Like-named read-outs stand apart in the source and are kept apart here.

Regarding `C=C(C)[C@@H]1CC[C@]2(C(=O)NCCCC[C@@H](N)C(=O)OC)CC[C@]3(C)[C@H](CC[C@@H]4[C@@]5(C)CCC(=O)C(C)(C)[C@@H]5CC[C@]43C)[C@@H]12` [Compound 17], the activity at 10 µM was 98.7% in test [1] (read-out: Mean Growth, %) and 79.2 to 111% in test [1] (read-out: Range of Growth, %).

Take `C=C(C)[C@@H]1CC[C@]2(C(=O)NCCCCCCN(CCCN)CCCN)CC[C@]3(C)[C@H](CC[C@@H]4[C@@]5(C)CCC(=O)C(C)(C)[C@@H]5CC[C@]43C)[C@@H]12` [Compound 13]: the activity at 10 µM in test [1] (read-out: Mean Growth, %) is 105%; in test [1] (read-out: Range of Growth, %), 85.8 to 118%.

Turning to `C=C(C)[C@@H]1CC[C@]2(C(=O)NCCNCCN)CC[C@]3(C)[C@H](CC[C@@H]4[C@@]5(C)CC[C@H](O)C(C)(C)[C@@H]5CC[C@]43C)[C@@H]12` [Compound 7], the activity at 10 µM in test [1] (read-out: Mean Growth, %) is 99.2%; in test [1] (read-out: Range of Growth, %) it was 53.8 to 147%.

In the case of `C=C(C)[C@@H]1CC[C@]2(C(=O)NCCN(CCNC(=O)OC(C)(C)C)C(=O)OC(C)(C)C)CC[C@]3(C)[C@H](CC[C@@H]4[C@@]5(C)CCC(=O)C(C)(C)[C@@H]5CC[C@]43C)[C@@H]12` [Compound 14], the “Percentage Cell Growth” value was 23.51% in [2]; 8.07% in [6]; −8.44% in test [8]; 17.41% in [10]; 18.57% in [11]; 19.12% in test [12]. In addition, the “Percentage Cell Growth” value turned out to be 28.02% in test [16], 31.97% in test [17] and 23.86% in test [21]. Moreover, the activity at 10 µM in [3] was determined as 11.7%; in test [4], 22.2%; in test [5], 28.8%; in test [7] it was 14.9%; in test [1] (read-out: Mean Growth, %), 36.6%; in test [9] it was 22.2%. For the same compound, the activity at 10 µM is 17.5% in [13]; -14.3% in test [14]; 23.7% in test [15]; -33.8% in test [18]; 27.9% in test [19]; 20.6% in test [20].

For the compound `C=C(C)[C@@H]1CC[C@]2(C(=O)NN(CCN(CCNC(=O)OC(C)(C)C)C(=O)OC(C)(C)C)C(=O)OC(C)(C)C)CC[C@]3(C)[C@H](CC[C@@H]4[C@@]5(C)CCC(=O)C(C)(C)[C@@H]5CC[C@]43C)[C@@H]12` [Compound 15], the activity at 10 µM in [1] (read-out: Mean Growth, %) was 90.1%; in test [1] (read-out: Range of Growth, %) it was 56.8 to 114%.

`C=C(C)[C@@H]1CC[C@]2(C(=O)NCCCCCCN(CCCN)CCCN)CC[C@]3(C)[C@H](CC[C@@H]4[C@@]5(C)CC[C@H](O)C(C)(C)[C@@H]5CC[C@]43C)[C@@H]12` [Compound 8]: the activity at 10 µM in [1] (read-out: Mean Growth, %) is 80.5%; in test [1] (read-out: Range of Growth, %) it was 20.4 to 135%; in [15], 24.3%; in test [18], 20.4%.

`C=C(C)[C@@H]1CC[C@]2(C(N)=O)CC[C@]3(C)[C@H](CC[C@@H]4[C@@]5(C)CCC(=O)C(C)(C)[C@@H]5CC[C@]43C)[C@@H]12` [Compound 9]: the activity at 10 µM in test [1] (read-out: Mean Growth, %) is 72%; in test [1] (read-out: Range of Growth, %) it was 25.9 to 115%; in test [14], 25.9%.

Turning to `C=C(C)[C@@H]1CC[C@]2(C(=O)N3CCNCC3)CC[C@]3(C)[C@H](CC[C@@H]4[C@@]5(C)CCC(=O)C(C)(C)[C@@H]5CC[C@]43C)[C@@H]12` [Compound 20], the activity at 10 µM was 101% in test [1] (read-out: Mean Growth, %) and 87.8 to 111% in test [1] (read-out: Range of Growth, %).

Regarding `C[C@H]1O[C@H](O[C@H]2[C@H](O)[C@@H](O)[C@@H](O[C@H]3[C@H](O)[C@@H](O)C(O)O[C@@H]3CO)O[C@@H]2CO)[C@H](O)[C@@H](O)[C@@H]1N[C@H]1C=C(CO)[C@@H](O)[C@H](O)[C@H]1O` (some centres unmarked) [Acarbose, reference compound], the “Rat Liver ER Neutral α-Glucosidase Inhibition, m ± SD” value in [22] (10 μM) is 5.68 ± 4.68%; in [22] (100 μM) it was 24.09 ± 6.48%; in test [22] (1 mM), 74.55 ± 3.76%.

For `C=C(C)[C@@H]1CC[C@]2(C(=O)NCCCCCCN(CCCN)CCCN)CC[C@]3(C)[C@H](CC[C@@H]4[C@@]5(C)CC[C@H](OCCCN)C(C)(C)[C@@H]5CC[C@]43C)[C@@H]12` [Compound 19], the “Percentage Cell Growth” value in [23] is 27.33%; in test [24], 31.48%; in [25], 18.88%; in test [27] it was −28.27%; in test [28], 5.71%; in test [29] it was 1.52%. For the same compound, the activity at 10 µM was 10.1% in test [3]; 14.5% in test [4]; 7.33% in [5]; 11.8% in test [7]; 63% in test [1] (read-out: Mean Growth, %); -39.5 to 141% in test [1] (read-out: Range of Growth, %). In addition, the activity at 10 µM was 18.4% in test [26]; 29.3% in [9]; 12.6% in [13]; 4.21% in test [15]; -39.5% in [19]; -16.2% in [20].
